Source: the supplement of paper PMC10307832

Legend:
Assay in all cases: relative viability (nuclei count vs DMSO), 5 days (fraction); higher = more cells survive
MK-8033 + Navitoclax = compound: Cn1cc(-c2cnc3ccc4ccc(CS(=O)(=O)NCc5ccccn5)cc4c(=O)c3c2)cn1 [MK-8033] + CC1(C)CCC(c2ccc(Cl)cc2)=C(CN2CCN(c3ccc(C(=O)NS(=O)(=O)c4ccc(N[C@H](CCN5CCOCC5)CSc5ccccc5)c(S(=O)(=O)C(F)(F)F)c4)cc3)CC2)C1 [Navitoclax] (partner 0.5 µM)
How it was run: (§1)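 The day after seeding in 1536-well plates, lung cancer cell lines were treated by pin tool with a single drug, or with a fixed anchor-drug dose together with five library-drug doses (not always all listed) in √10 steps. After 5 days, a combined fix-and-stain solution (final 0.05% Triton X-100, 1% formaldehyde, 1 ug/ml Hoechst) was added. Nuclei counted on 4× images gave relative viability as treated counts over vehicle counts, reported as the median of duplicate plates.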

MK-8033 + Foretinib = compound: Cn1cc(-c2cnc3ccc4ccc(CS(=O)(=O)NCc5ccccn5)cc4c(=O)c3c2)cn1 [MK-8033] + COc1cc2c(Oc3ccc(NC(=O)C4(C(=O)Nc5ccc(F)cc5)CC4)cc3F)ccnc2cc1OCCCN1CCOCC1 [Foretinib] (partner 0.25 µM)
How it was run: as §1

MK-8033 + Dasatinib = compound: Cn1cc(-c2cnc3ccc4ccc(CS(=O)(=O)NCc5ccccn5)cc4c(=O)c3c2)cn1 [MK-8033] + Cc1nc(Nc2ncc(C(=O)Nc3c(C)cccc3Cl)s2)cc(N2CCN(CCO)CC2)n1 [Dasatinib] (partner 0.075 µM)
How it was run: as §1

MK-8033 + Pemetrexed = compound: Cn1cc(-c2cnc3ccc4ccc(CS(=O)(=O)NCc5ccccn5)cc4c(=O)c3c2)cn1 [MK-8033] + Nc1nc2[nH]cc(CCc3ccc(C(=O)N[C@@H](CCC(=O)O)C(=O)O)cc3)c2c(=O)[nH]1 [Pemetrexed] (partner 0.2 µM)
How it was run: as §1

Cell Line | relative viability (MK-8033 + Navitoclax; first compound 0.02 µM) | relative viability (MK-8033 + Navitoclax; first compound 0.06325 µM) | relative viability (MK-8033 + Navitoclax; first compound 0.2 µM) | relative viability (MK-8033 + Navitoclax; first compound 2 µM) | relative viability (MK-8033 + Foretinib; first compound 0.02 µM) | relative viability (MK-8033 + Foretinib; first compound 0.2 µM) | relative viability (MK-8033 + Foretinib; first compound 0.6325 µM) | relative viability (MK-8033 + Foretinib; first compound 2 µM) | relative viability (MK-8033 + Dasatinib; first compound 0.02 µM) | relative viability (MK-8033 + Dasatinib; first compound 0.2 µM) | relative viability (MK-8033 + Dasatinib; first compound 0.6325 µM) | relative viability (MK-8033 + Dasatinib; first compound 2 µM) | relative viability (MK-8033 + Pemetrexed; first compound 0.02 µM) | relative viability (MK-8033 + Pemetrexed; first compound 0.06325 µM) | relative viability (MK-8033 + Pemetrexed; first compound 0.2 µM) | relative viability (MK-8033 + Pemetrexed; first compound 0.6325 µM) | relative viability (MK-8033 + Pemetrexed; first compound 2 µM) | relative viability (MK-8033 + Navitoclax; first compound 0.6325 µM) | relative viability (MK-8033 + Foretinib; first compound 0.06325 µM) | relative viability (MK-8033 + Dasatinib; first compound 0.06325 µM)
HCC-78 | 0.596 | 0.665 | 0.767 | 0.774 | 0.444 | 0.548 | 0.575 | 0.55 | 0.55 | 0.335 | 0.355 | 0.491 | 0.936 | 0.923 | 0.928 | 0.587 | 0.851 |  |  | 
HCC-366 | 1.02 | 1.11 | 1.06 | 1.07 | 0.965 | 0.929 | 0.965 | 0.962 | 0.617 | 0.564 | 0.634 | 0.651 | 0.151 | 0.222 | 0.141 | 0.196 | 0.35 | 1.01 | 0.864 | 0.638
HCC-827 | 0.963 |  | 0.939 | 0.984 | 1.1 | 0.989 | 0.967 | 1.03 | 0.334 | 0.342 | 0.283 | 0.304 | 0.232 |  | 0.257 | 0.267 | 0.243 | 0.918 |  | 0.114
HOP-62 | 1.03 | 0.89 | 1.03 | 0.955 | 1.07 | 1.03 | 1.06 | 1.18 | 0.536 | 0.581 | 0.66 | 0.599 | 0.358 | 0.415 | 0.326 | 0.3 | 0.32 | 1.12 | 1.07 | 0.535
IA-LM | 0.712 | 0.618 | 0.907 | 0.696 | 0.989 | 1.17 | 1.15 | 1.12 |  |  |  |  |  |  |  |  |  | 0.912 | 1.03 | 
LC-2-ad | 0.519 | 0.328 | 0.398 | 0.413 | 0.94 |  | 0.981 | 0.944 | 0.547 |  | 0.67 | 0.61 | 0.298 | 0.273 | 0.264 | 0.268 | 0.276 | 0.383 | 0.867 | 0.437
LCLC-97TM1 | 0.402 | 0.506 | 0.396 | 0.401 | 0.9 | 0.925 | 0.951 | 0.969 | 0.887 | 0.803 | 0.84 | 0.939 | 0.165 | 0.134 |  | 0.201 | 0.173 | 0.398 | 0.924 | 0.814
LCLC-103H |  |  |  |  | 0.747 | 0.696 | 0.84 | 0.806 | 0.516 | 0.406 | 0.434 | 0.537 | 0.504 | 0.446 | 0.457 | 0.482 | 0.458 |  | 0.707 | 0.518
LK-2 | 0.907 | 0.853 | 0.807 | 0.772 | 1.05 | 1.13 | 1.42 | 1.08 | 0.269 | 0.251 | 0.376 | 0.304 | 0.329 | 0.263 | 0.239 | 0.335 | 0.258 | 0.924 |  | 
NCI-H358 |  |  |  |  | 0.801 | 0.72 | 0.565 | 0.643 | 0.15 | 0.198 | 0.163 | 0.175 | 0.165 | 0.181 | 0.158 | 0.167 | 0.164 |  | 0.511 | 0.149
NCI-H522 |  |  |  |  |  |  |  |  | 0.776 | 0.815 | 1.07 | 0.818 | 1.07 | 0.967 | 0.941 | 0.891 | 1.04 |  |  | 0.696
NCI-H650 |  |  |  |  | 1.06 | 1.02 | 1.02 | 1.02 | 0.491 | 0.471 | 0.386 | 0.489 | 0.982 | 0.955 | 0.863 | 0.933 | 0.83 |  | 1.08 | 0.446
NCI-H661 |  |  |  |  | 1.04 | 0.997 | 0.919 | 0.985 | 0.886 | 0.783 | 0.766 | 0.858 | 0.907 | 0.867 | 0.876 | 0.909 | 0.905 |  | 0.995 | 0.818
NCI-H727 | 0.377 | 0.435 | 0.311 | 0.486 | 0.817 | 0.859 | 0.685 | 1.06 | 0.363 | 0.464 | 0.435 | 0.322 |  |  |  |  |  | 0.465 |  | 
NCI-H1299 | 1.04 | 1.03 | 1.03 | 1.01 | 1.09 | 1.02 | 1.13 | 1.06 |  |  |  |  |  |  |  |  |  | 1.07 | 1.08 | 
NCI-H1563 |  |  |  |  | 0.899 | 0.903 | 0.97 | 0.981 | 0.468 | 0.473 | 0.362 | 0.46 | 0.736 | 0.695 | 0.738 | 0.69 | 0.794 |  | 0.927 | 0.45
NCI-H1623 |  |  |  |  | 0.904 | 0.889 | 0.812 | 0.943 | 0.608 | 0.642 | 0.516 | 0.57 |  |  |  |  |  |  | 0.729 | 0.504
NCI-H1648 |  |  |  |  |  |  |  |  |  |  |  |  | 0.733 |  | 0.538 | 0.81 | 0.835 |  |  | 
NCI-H1703 | 0.967 | 1.08 | 0.988 | 0.924 | 0.316 | 0.351 | 0.32 | 0.337 |  |  |  |  |  |  |  |  |  | 1.12 | 0.393 | 
NCI-H1792 | 0.826 | 0.649 | 0.593 | 0.653 |  |  |  |  | 0.768 | 0.752 | 0.57 | 0.569 | 0.789 | 0.64 | 0.62 | 0.69 | 0.872 | 0.61 |  | 0.834
NCI-H2342 |  |  |  |  | 1.04 | 0.976 | 0.947 | 1.07 | 0.329 | 0.35 | 0.33 | 0.352 | 0.729 | 0.805 | 0.773 | 0.814 | 0.752 |  | 1.08 | 0.277
SW 900 |  |  |  |  | 0.732 | 0.665 | 0.88 | 0.79 | 0.378 | 0.476 | 0.907 | 0.424 | 0.489 | 0.401 | 0.47 | 0.507 | 0.463 |  | 0.813 | 0.394
